Like-named read-outs stand apart in the source and are kept apart here.
Columns and labels:
[1] = system: CT26 spheroids lacking immune cells; assay: Viability of CT26 spheroids lacking immune cells; type: cell-based
Experimental: Fresh tumor specimens (murine and human patients) were received in media (DMEM) on ice and minced in a 10 cm dish (on ice) using sterile forceps and scalpel. Minced tumor was resuspended in DMEM ([…], […] sodium pyruvate, 1:100 penicillin-streptomycin) (Corning CellGro, Manassas, Va.) +10% FBS (Gemini Bio-Products, West Sacramento, Calif.), 100 U/mL collagenase type IV (Life Technologies, Carlsbad, Calif.), and 15 mM HEPES (Life Technologies, Carlsbad, Calif.), except for CT26 tumors that were prepared in RPMI. Samples were pelleted and resuspended in 10-20 mL media. Red blood cells were removed from visibly bloody samples using RBC Lysis Buffer (Boston Bio-Products, Ashland, Mass.). […]
Dual labeling was performed by loading microfluidic device with Nexcelom ViaStain™ AO/PI Staining Solution (Nexcelom, CS2-0106). Following incubation with the dyes (20 minutes at room temperature in the dark), images were captured on a Nikon Eclipse 80i fluorescence microscope equipped with Z-stack (Prior) and CoolSNAP CCD camera (Roper Scientific). […] Live and dead cell quantitation was performed by measuring total cell area of each dye. […]

off-target kinases = off-target kinases (Homo sapiens, UniProt P05771); assay: SelectScreen Kinase Profiling, single point inhibition and IC50 for off-target kinases; type: biochemical; set-up: other: PRKCB2 (PKC beta II); ZLYTE; ATP Km app; 1000 μM; conditions: PRKCB2 (PKC beta II), ZLYTE, ATP Km app
off-target kinases, sequence (P05771 1-673 isoform P05771-2): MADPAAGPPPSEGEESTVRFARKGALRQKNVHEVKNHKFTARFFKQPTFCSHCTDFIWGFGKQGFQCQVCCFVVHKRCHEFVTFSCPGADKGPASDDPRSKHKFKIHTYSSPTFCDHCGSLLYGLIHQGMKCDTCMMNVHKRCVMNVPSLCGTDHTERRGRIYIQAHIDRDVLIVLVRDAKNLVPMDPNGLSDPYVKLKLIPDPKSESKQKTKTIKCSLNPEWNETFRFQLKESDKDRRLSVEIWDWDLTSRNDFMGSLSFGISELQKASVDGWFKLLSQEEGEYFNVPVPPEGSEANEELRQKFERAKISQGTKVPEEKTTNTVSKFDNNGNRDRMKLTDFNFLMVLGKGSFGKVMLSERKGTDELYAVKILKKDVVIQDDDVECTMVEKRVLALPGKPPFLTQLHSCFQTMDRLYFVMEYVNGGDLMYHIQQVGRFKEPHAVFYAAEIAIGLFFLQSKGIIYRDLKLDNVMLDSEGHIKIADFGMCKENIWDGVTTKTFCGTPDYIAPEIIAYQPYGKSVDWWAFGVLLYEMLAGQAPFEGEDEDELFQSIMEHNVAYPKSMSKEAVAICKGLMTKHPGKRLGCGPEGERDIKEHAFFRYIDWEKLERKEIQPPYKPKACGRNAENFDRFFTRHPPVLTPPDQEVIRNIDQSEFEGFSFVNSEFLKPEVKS
Experimental: Biochemical single point inhibition and IC50 concentrations for TBK1, IKKε (IKBKE), and off-target kinases were determined at ThermoFisher Scientific using SelectScreen Kinase Profiling Services (Madison, Wis., USA) (Tables S4A and S4B-1-7). To determine cellular potency, the human colorectal cancer carcinoma cell line HCT116 (ATCC, Manassas, Va.) was maintained in T175 flasks in complete RPMI medium; RPMI 1640 supplemented with 10% FBS, 1× Penicillin-Streptomycin solution and 1×MEM (non-essential amino acids). HCT116 cells were grown to 90-95% confluency in T175 flasks containing complete RPMI medium and transfected in bulk using Lipofectamine 2000 (Invitrogen, Carlsbad, Calif.) with 70 μg of ISG54-luciferase reporter plasmid (Elim Biopharmaceuticals Inc., Hayward, Calif.). The reporter plasmid contains a luciferase gene expression cassette under the transcriptional regulation of the promoter of the human interferon stimulated gene 54 (ISG54). Transfection of the cells was allowed to take place for 6 hours, after which the cells were harvested by treatment with 0.25% trypsin EDTA (Corning Inc., Corning, N.Y.). Trypsinized cells were added to 384-well poly-d-lysine treated black clear bottom tissue culture assay plates (Greiner Bio-One GmbH, Kremsmünster, Austria) at a density of 20,000 cells/well in 80 μL of complete RPMI medium and incubated overnight. After 16-18 hours post-transfection, the assay plates were washed with PBS (Corning Inc., Corning, N.Y.), followed by addition of 80 μL/well of serum-free RPMI 1640 medium containing 1× Penicillin-Streptomycin solution, 1×MEM and 350 nL of DMSO or titrations of Compound 1. […] The assay plates were incubated for 5 hours at 37° C., followed by addition of One-Glo luciferase firefly reagent (Promega, Madison, Wis.) at 1:1 volume/well and luminescence was measured in an EnVision Multilabel Plate Reader (PerkinElmer, Santa Clara, Calif.). The EC50 values were calculated from the fit of the dose-response curves to a four-parameter equation. […]

N#Cc1cc(-c2ncnc(Nc3ccc(N4CCN(C5COC5)CC4)cc3)n2)ccc1OC1CCOCC1 [Compound 1, 5-(4-((4-(4-(oxetan-3-yl)piperazin-1-yl)phenyl)amino)-1,3,5-triazin-2-yl)-2-((tetrahydro-2H-pyran-4-yl)oxy)benzonitrile] was tested, and the “cytotoxic effects on CT26 cell line spheroids (viability)” value [1] was “without cytotoxic effects”, the inhibition (off-target kinases; read-out: % Inhibition 1) was 12% and the inhibition (off-target kinases; read-out: % Inhibition 2) was 8%. It also gave an inhibition (off-target kinases; read-out: % Inhibition Avg) of 10%.

— patent publication US11572590B2, “Methods for evaluating tumor cell spheroids using 3D microfluidic cell culture device” (Dana-Farber Cancer Institute, Inc., priority 2017, dated 2023)
